Reference: patent US20070015232A1, “Mitotic index assay” (DiscoveRx, Inc., priority 2005, published 2007)

Legend:
[1] = system: C2C12+EA-NLS/NRS+GR-PL cells; experiment: EFC mitotic index assay, C2C12+EA-NLS/NRS+GR-PL cells (Stanford GR cells); assay type: cell-based, mouse; details: for Avg luminescence readout / R1 luminescence readout / R3 luminescence readout / Ratio (Avg vs 0 conc): 24 hours, 30 min read
Protocol: (§1) In all experiments described, 20,000 cells/well were plated in a 96 well Corning clear bottom white plate in a total volume of 100 μL. The cells were treated for 24 hours with 5 μL of either the appropriate vehicle control or varying concentrations of the six compounds listed above. The next day, 100 μL of Tropix/ABI Gal screen cell lysis buffer/substrate mixture (24:1 ratio of component) was added to the cells/media and the plate was read on the Victor II luminescent plate reader at 30, 60 and 120 minutes after the lysis/substrate addition.
(§2) The initial test of the cell cycle arresting compounds was performed on a double stable cell line having both of the constructs expressing the EA-NLS/NRS and GR-PL. (PL is β-galactosidase enzyme donor fragment and EA is the enzyme acceptor fragment available from DiscoveRx, Fremont, CA.). The parental line, C2C12 is derived from mouse muscle cells. In the experiments in which EA-NLS/NRS and GR-PL are expressed in the C2C12 parental cell line, the constructs were generated by subcloning the human GR sequence into a MFG-based retroviral vector that had been molecularly altered in a lab at Stanford. An MFG vector is described in U.S. Pat. No. 6,544,771. The EA-NLS/NRS fragment was subcloned into a wzl-based retroviral vector again molecularly altered in a lab at Stanford. In the experiments performed using a CHO-K1 parental cell line background the EA-NLS/NRS was subcloned into the Kpn I and Xba I sites of pcDNA3.1 Hygro vector from Invitrogen (catalog #V870-20). The plasmid was introduced into the cells via FuGene6 (Roche) transfection reagent. Cells were selected in the presence of 250 μg/mL of Hygromycin and single cell clones isolated that expressed the EA-NLS/NRS. The human GR gene was cloned by PCR and subcloned into the Xho I and Bam HI sites of the DiscoveRx vector-pCMV-myc-PL (C3). The plasmid was introduced into the selected EA-NLS/NRS expressing clone isolated above by FuGene 6 transfection. Another round of screening in the presence of 300-500 μg/mL of G418 was used to select GR-PL transfected clones. Clonal selection was performed to finally identify the clone that was used in these studies. In the studies using the CHO-K1+cyto-EA and cJUN-PL, the same Invitrogen pcDNA3.1 Hygro vector was used to express EA. In this case, the EA fragment was subcloned into the Kpn I/Not I sites of pcDNA3.1 Hygro. The plasmid DNA was introduced as described above using FuGene6 reagent. Cells were selected in the presence of 250 μg/mL of hygromycin and clonal selection was performed. The c-Jun gene was generated by PCR using an existing template copy of the gene and then subcloned into the Xho I/Bam HI sites of pCMV-PL-myc (C3).

[2] = system: CHO-K1+EA-NLS/NRS+GR-PL cells; experiment: EFC mitotic index assay, CHO-K1+EA-NLS/NRS+GR-PL cells, antibiotic selected pool (DX M19/GR pool); assay type: cell-based; details: for Avg luminescence readout / R1 luminescence readout / R3 luminescence readout / Ratio (Avg vs 0 conc): 24 hours, 30 min read
Protocol: as §1, §2
In the next experiment, an antibiotic selected pool population of CHO-K1 cells that express EA-NLS/NRS and GR-PL were tested with the same six set of cell cycle blocking compounds. […] FIGS. 2a and 2b show the immunofluorescence localization of EA and GR-PL in that the blue DAPI nuclear staining can be seen to be concentrated in the nucleus, while the green fluorescein stain on the antibody (from Abcam PLC) to the glucocorticoid receptor is seen in the cytoplasm. […] Again, six tables are presented one for each of the six drugs tested.
This only occurs with compounds that block the cells in mitosis, allowing EA and ProLabel to complement.

[3] = system: CHO-K1+cyto-EA cells transfected with cJUN-PL; experiment: EFC mitotic index assay, CHO-K1+cyto-EA cells transiently transfected with cJUN-PL; assay type: cell-based; details: for Avg luminescence readout / R1 luminescence readout / R3 luminescence readout / Ratio (Avg vs 0 conc): overnight
Protocol: as §2
To further test the concept of sequestering of one β-galactosidase enzyme fragment in the nucleus (in this case PL) while localizing the other component in the cytoplasm (in this case EA) the following experiment was carried out. […] The cyto-EA cells were transiently transfected with cJUN-PL plasmid DNA. Two days after the transfection, the cells were re-plated into a 96 well Corning white clear bottom multiwell plate at 20,000 cells/well. The cells were allowed to adhere overnight and the next day were treated with titrating concentrations of the six different cell cycle blocking compounds. The incubation was carried out overnight. The next day the media was removed from the cells and 100 μL of Tropix/ABI Gal screen cell lysis/substrate reagent was added to the cells.

C[C@@]1(CO)[C@H](O)CC[C@@]2(C)[C@H]1CC[C@H]1C[C@@H]3C[C@@]12CC[C@]3(O)CO [Aphidicolin, aphidicolin]
Avg luminescence readout ([1]; 0.3 μM): 3444
R1 luminescence readout ([1]; 0.3 μM): 3081
R3 luminescence readout ([1]; 0.3 μM): 3500
Ratio (Avg vs 0 conc) ([1]; 0.3 μM): 1
Avg luminescence readout ([1]; 1 μM): 3307
R1 luminescence readout ([1]; 1 μM): 3250
R3 luminescence readout ([1]; 1 μM): 3388
Ratio (Avg vs 0 conc) ([1]; 1 μM): 1
Avg luminescence readout ([1]; 3.3 μM): 3132
R1 luminescence readout ([1]; 3.3 μM): 3171
R3 luminescence readout ([1]; 3.3 μM): 3105
Ratio (Avg vs 0 conc) ([1]; 3.3 μM): 1
Avg luminescence readout ([1]; 10.0 μM): 3413
R1 luminescence readout ([1]; 10.0 μM): 2827
R3 luminescence readout ([1]; 10.0 μM): 3765
Ratio (Avg vs 0 conc) ([1]; 10.0 μM): 1
Avg luminescence readout ([2]; 0.3 μM): 5508
R1 luminescence readout ([2]; 0.3 μM): 5478
R3 luminescence readout ([2]; 0.3 μM): 5469
Ratio (Avg vs 0 conc) ([2]; 0.3 μM): 1
Avg luminescence readout ([2]; 1 μM): 5604
R1 luminescence readout ([2]; 1 μM): 5656
R3 luminescence readout ([2]; 1 μM): 5491
Ratio (Avg vs 0 conc) ([2]; 1 μM): 1
Avg luminescence readout ([2]; 3.3 μM): 4561
R1 luminescence readout ([2]; 3.3 μM): 4392
R3 luminescence readout ([2]; 3.3 μM): 4749
Ratio (Avg vs 0 conc) ([2]; 3.3 μM): 0
Avg luminescence readout ([2]; 10.0 μM): 6941
R1 luminescence readout ([2]; 10.0 μM): 7213
R3 luminescence readout ([2]; 10.0 μM): 6651
Ratio (Avg vs 0 conc) ([2]; 10.0 μM): 1
increase in EFC activity (in words) ([2]; overnight treatment): did not cause an increase in EFC activity
Avg luminescence readout ([3]; 1.5 μg/mL): 7545
R1 luminescence readout ([3]; 1.5 μg/mL): 7218
R3 luminescence readout ([3]; 1.5 μg/mL): 7576
Ratio (Avg vs 0 conc) ([3]; 1.5 μg/mL): 0.9
Avg luminescence readout ([3]; 4.4 μg/mL): 9193
R1 luminescence readout ([3]; 4.4 μg/mL): 9492
R3 luminescence readout ([3]; 4.4 μg/mL): 9245
Ratio (Avg vs 0 conc) ([3]; 4.4 μg/mL): 1.1
Avg luminescence readout ([3]; 13.3 μg/mL): 7027
R1 luminescence readout ([3]; 13.3 μg/mL): 6677
R3 luminescence readout ([3]; 13.3 μg/mL): 7784
Ratio (Avg vs 0 conc) ([3]; 13.3 μg/mL): 0.8
Avg luminescence readout ([3]; 40.0 μg/mL): 9131
R1 luminescence readout ([3]; 40.0 μg/mL): 8645
R3 luminescence readout ([3]; 40.0 μg/mL): 9818
Ratio (Avg vs 0 conc) ([3]; 40.0 μg/mL): 1.0
increase in EFC activity (in words) ([3]; overnight incubation): negligible increase in EFC activity

CC[C@]1(O)C[C@@H]2CN(CCc3c([nH]c4ccccc34)[C@@](C(=O)OC)(c3cc4c(cc3OC)N(C)[C@H]3[C@@](O)(C(=O)OC)[C@H](OC(C)=O)[C@]5(CC)C=CCN6CC[C@]43[C@@H]65)C2)C1 [Vinblastine]
increase in EFC activity (in words) [1]: no increase in EFC activity
Avg luminescence readout ([1]; 1.0 μg/mL): 10744
R1 luminescence readout ([1]; 1.0 μg/mL): 10417.0
R3 luminescence readout ([1]; 1.0 μg/mL): 11042
Ratio (Avg vs 0 conc) ([1]; 1.0 μg/mL): 1
Avg luminescence readout ([1]; 3.3 μg/mL): 12078
R1 luminescence readout ([1]; 3.3 μg/mL): 10894.0
R3 luminescence readout ([1]; 3.3 μg/mL): 13468
Ratio (Avg vs 0 conc) ([1]; 3.3 μg/mL): 1
Avg luminescence readout ([1]; 10.0 μg/mL): 10751
R1 luminescence readout ([1]; 10.0 μg/mL): 10269.0
R3 luminescence readout ([1]; 10.0 μg/mL): 11281
Ratio (Avg vs 0 conc) ([1]; 10.0 μg/mL): 1
Avg luminescence readout ([1]; 30.0 μg/mL): 10933
R1 luminescence readout ([1]; 30.0 μg/mL): 10692.0
R3 luminescence readout ([1]; 30.0 μg/mL): 11196
Ratio (Avg vs 0 conc) ([1]; 30.0 μg/mL): 1
Avg luminescence readout ([2]; 1.0 μg/mL): 4335
R1 luminescence readout ([2]; 1.0 μg/mL): 4205
R3 luminescence readout ([2]; 1.0 μg/mL): 4277
Ratio (Avg vs 0 conc) ([2]; 1.0 μg/mL): 1
Avg luminescence readout ([2]; 3.3 μg/mL): 4345
R1 luminescence readout ([2]; 3.3 μg/mL): 4410
R3 luminescence readout ([2]; 3.3 μg/mL): 4436
Ratio (Avg vs 0 conc) ([2]; 3.3 μg/mL): 1
Avg luminescence readout ([2]; 10.0 μg/mL): 4078
R1 luminescence readout ([2]; 10.0 μg/mL): 3907
R3 luminescence readout ([2]; 10.0 μg/mL): 4201
Ratio (Avg vs 0 conc) ([2]; 10.0 μg/mL): 1
Avg luminescence readout ([2]; 30.0 μg/mL): 5919
R1 luminescence readout ([2]; 30.0 μg/mL): 5161
R3 luminescence readout ([2]; 30.0 μg/mL): 6583
Ratio (Avg vs 0 conc) ([2]; 30.0 μg/mL): 1

CC(=O)O[C@H]1C(=O)[C@@]2(C)[C@H]([C@H](OC(=O)c3ccccc3)[C@]3(O)C[C@H](OC(=O)[C@H](O)[C@@H](NC(=O)c4ccccc4)c4ccccc4)C(C)=C1C3(C)C)[C@]1(OC(C)=O)CO[C@@H]1C[C@@H]2O [Taxol, paclitaxel]
Avg luminescence readout ([1]; 0.03 μM): 3094
R1 luminescence readout ([1]; 0.03 μM): 2624
R3 luminescence readout ([1]; 0.03 μM): 3543
Ratio (Avg vs 0 conc) ([1]; 0.03 μM): 1
Avg luminescence readout ([1]; 0.1 μM): 3684
R1 luminescence readout ([1]; 0.1 μM): 2602
R3 luminescence readout ([1]; 0.1 μM): 4340
Ratio (Avg vs 0 conc) ([1]; 0.1 μM): 1
Avg luminescence readout ([1]; 0.3 μM): 3213
R1 luminescence readout ([1]; 0.3 μM): 2638
R3 luminescence readout ([1]; 0.3 μM): 3639
Ratio (Avg vs 0 conc) ([1]; 0.3 μM): 1
Avg luminescence readout ([1]; 1 μM): 3692
R1 luminescence readout ([1]; 1 μM): 3016
R3 luminescence readout ([1]; 1 μM): 4104
Ratio (Avg vs 0 conc) ([1]; 1 μM): 1
Avg luminescence readout ([2]; 0.03 μM): 7167
R1 luminescence readout ([2]; 0.03 μM): 7314
R3 luminescence readout ([2]; 0.03 μM): 6605
Ratio (Avg vs 0 conc) ([2]; 0.03 μM): 1
Avg luminescence readout ([2]; 0.1 μM): 9961
R1 luminescence readout ([2]; 0.1 μM): 10680
R3 luminescence readout ([2]; 0.1 μM): 9258
Ratio (Avg vs 0 conc) ([2]; 0.1 μM): 2
Avg luminescence readout ([2]; 0.3 μM): 9506
R1 luminescence readout ([2]; 0.3 μM): 11709
R3 luminescence readout ([2]; 0.3 μM): 7904
Ratio (Avg vs 0 conc) ([2]; 0.3 μM): 1
Avg luminescence readout ([2]; 1 μM): 15972
R1 luminescence readout ([2]; 1 μM): 17111
R3 luminescence readout ([2]; 1 μM): 14344
Ratio (Avg vs 0 conc) ([2]; 1 μM): 2
